Laboratory results published in patent publication US6369003B1, “Process and composition for soil improvement by reducing microbially formed ethylene in the soil” (BASF Aktiengesellschaft, priority 1994, dated 2002).
Read-outs that look alike come from different tables or passages of the source.

What was measured:
pea variety Sparkle = details: nodule formation reduced by provision of light in the root area; Lee and La Rue; cited from earlier work
parent strain Sparkle = details: Fearn and La Rue 1991; cited from earlier work
[1] = system: pea varieties Sparkle and Rondo; details: Lee and La Rue, cited from earlier work
mutant EZ (Sym5) of peas = details: severely reduced nodule formation of the mutant; Fearn and La Rue 1991; cited from earlier work
[2] = system: Soybean plants (Delta Pine 415); assay: Soybeans test 3c: root nodules and total N, greenhouse; type: in vivo, Glycine max; details: for Nodules: untreated 46
Protocol: In these tests various types of non-sterile soils were used. The cultivation of the plants was carried out under greenhouse or climatic chamber conditions. The active compounds according to the invention were applied uniformly distributed over the soil surface in an aqueous preparation after the emergence of the respective test plants. The supply of water for the plants was carrried out using the same technique, always paying attention to uniform moistness of the soil. In the case of the cultivation of legumes, defined amounts of species-specific Rhizobia were admixed to the soil. In some cases inoculation was also carried out by seed treatment.
a) Soybean plants (Delta Pine 415) were cultivated under greenhouse conditions in low N Limburgerhof soil in plastic pots (500 ml) and watered from above as required. A few days after emergence the plants were thinned out to 5 plants per pot.
In 8 pots in each case per test member an aqueous active compound solution of 2.3.1.3 was applied by watering. 16 pots remained untreated in each case.
c) Test procedure as in 3 a)

soybean plants = details: even at distinctly higher ethylene administration; Lee and La Rue; cited from earlier work
white sweetclover = details: 0.07 μl/l of ethylene gas/l of air; Lee and La Rue; cited from earlier work
[3] = 0.030 mg of a.s./pot; procedure as in 3 a)
[4] = 0.300 mg of a.s./pot; procedure as in 3 a)

| SMILES | nodulation (parent strain Sparkle) | nodule formation (mutant EZ (Sym5) of peas) | Total N (shoots + root) [2, 3] | Nodules [2, 3] [number/pot] | Total N (shoots + root) [2, 4] | Nodules [2, 4] [number/pot] | also measured |
| --- | --- | --- | --- | --- | --- | --- | --- |
| O=S(=O)([O-])[O-].[Ag+].[Ag+] [Ag2SO4] | not affected | partially restored |  |  |  |  | nodule formation (pea variety Sparkle): reverse the reduced nodule formation by light; nodule formation ([1]; peas (Sparkle), in the presence of ethylene): normal nodule formation could be restored |
| O=[N+]([O-])[O-].O=[N+]([O-])[O-].[Co+2] [Co(NO3)2] | not affected | partially restored |  |  |  |  |  |
| CCCCCCOC(=O)CON=C(C)C [active compound 2.3.1.4] |  |  | 103 % of control | 55 | 110 % of control | 66 |  |
| CC(C)OCOC(=O)CON=C1CCCCC1 [active compound 2.3.1.5] |  |  | 104 % of control | 70 | 107 % of control | 61 |  |
| C=C [ethylene] |  |  |  |  |  |  | nodulation (soybean plants): no significant effect on nodulation; nodule formation ([1]; 0.07 μl/l of ethylene gas/l of air): severe reduction in nodule formation; nodule formation (white sweetclover): severe reduction in nodule formation |
